From patent US4748251A, “7-n-aminomethylenemitomycin derivative” (priority 1985, dated 1988)
Values after ≈ are worked out from the molar mass of the structure shown.

Key:
[1] = test system: Shigella sonnei ATCC 9290; experiment: Antibacterial activity, agar dilution method, pH 7.0 (SS); format: cell-based; conditions: ATCC9290, pH 7, read-out: minimum growth inhibitory concentration
Method: (§1) Antibacterial activities of some compounds covered by the present invention against various bacteria are shown by the minimum growth inhibitory concentration (μg/ml) in Table 1. The minimum growth inhibitory concentration was measured at pH 7.0 according to the agar dilution method. In the table, bacteria are indicated by the following letters.
SS: Shigella sonnei ATCC 9290

[2] = test system: Proteus vulgalis ATCC 6897; experiment: Antibacterial activity, agar dilution method, pH 7.0 (PV); format: cell-based; conditions: pH 7, read-out: minimum growth inhibitory concentration
Method: as §1
PV: Proteus vulgalis ATCC 6897

[3] = test system: Streptococcus faecalis ATCC 10541; experiment: Antibacterial activity, agar dilution method, pH 7.0 (SF); format: cell-based; conditions: Enterococcus faecalis, ATCC10541, pH 7, read-out: minimum growth inhibitory concentration
Method: as §1
SF: Streptococcus faecalis ATCC 10541

[4] = test system: Klebsiella pneumoniae ATCC 10031; experiment: microbe, parasite or virus in culture; format: cell-based; conditions: ATCC10031, pH 7, read-out: minimum growth inhibitory concentration
Method: The minimum growth inhibitory concentration was measured at pH 7.0 according to the agar dilution method. In the table, bacteria are indicated by the following letters.
KP: Klebsiella pneumoniae ATCC 10031

[5] = test system: Staphylococcus aureus ATCC 6538P; experiment: Antibacterial activity, agar dilution method, pH 7.0 (SA); format: cell-based; conditions: ATCC6538P, pH 7, read-out: minimum growth inhibitory concentration
Method: as §1
SA: Staphylococcus aureus ATCC 6538P

[6] = test system: leukemia P-388; experiment: Anti-tumor activity against leukemia P-388; format: in vivo, mouse (CDF1); conditions: for ILS %: i.p. once, 33 days
Method: (§2) Ascites was sampled from the abdominal cavity of tumor-bearing mice (DBA/2) 7 days after transplantation of P-388 ascitic tumor. The number of the P-388 cells in the ascites was counted. A suspension of the tumor cells of 5×10^6 /ml was prepared using sterilized physiological saline, and 0.2 ml of the suspension (containing 1×10^6 cells) was intraperitoneally transplanted to CDF1 mice weighing 20 to 25 g. Twenty-four hours after the transplantation of the tumor, a test compound was intraperitoneally administered once to groups of the CDF1 mice, each group consisting of 6 mice. […] The effect of the compound was evaluated by a ratio of a mean survival days of the group treated with the compound to a mean survival days of the control group (untreated group) after 33 days of observation (Increased Life Span, ILS %).

[7] = test system: Bacillus subtilis 10707; experiment: Antibacterial activity, agar dilution method, pH 7.0 (BS); format: cell-based; conditions: Bacillus subtilis, 10707, pH 7, read-out: minimum growth inhibitory concentration
Method: as §1
BS: Bacillus subtilis 10707

[8] = test system: P-388 leukemia resistant to mitomycin C; experiment: Anti-tumor activity against P-388 leukemia resistant to mitomycin C; format: in vivo, mouse (CDF1); conditions: for ILS %: i.p. once
Method: as §2

[9] = Acute toxicity in mice; set-up: species or system mouse (ddY strain); conditions: mouse, in vivo, ip; intraperitoneally once, ddY mice, 14 days observation, Beherns Kaerber's method
Method: (§3) Taking some of the compounds falling within the present invention as examples, anti-tumor activity (ED50) against Sarcoma 180 solid tumor and acute toxicity (LD50) as well as effect on peripheral leucocytes number (WBC4000) are shown in Table 2.
Each animal of the test group consisting of 5 ddY mice was administered intraperitoneally once with a test compound. […] The LD50 was determined by Beherns Kaerber's method.

[10] = test system: Sarcoma 180 solid tumor; experiment: Anti-tumor activity against Sarcoma 180 solid tumor in mice; format: in vivo, mouse (ddY strain); conditions: Mus musculus, Sarcoma-180, ip, 168 h; dose reducing tumor volume to 50% of control; intraperitoneal 24 hours after implantation; tumor measured 7 days after implantation
From the text: as §3
(1) Effect against Sarcoma 180 solid tumor cells:
5×10^6 cells of Sarcoma 180 solid tumor were implanted into ddY mice. 7 days later, ascites cells were sampled. The cells were washed once with a sterilized physiological solution of sodium chloride and were used to prepare a cell supspension containing 5×10^7 cells per ml. On each occasion, 0.1 ml of the cell suspension was subcutaneously implanted into the right axilla of a male mouse (ddY strain; body weight 20±2 g). The test compound was dissolved in a physiological solution of sodium chloride with or without addition of Tween 80 and was administered intraperitoneally into each mouse of a group consisting of 5 mice at a dose of 0.1-0.2 ml, 24 hours after the implantation of the tumor cells.
The anti-tumor activity was determined in the following manner. 7 days after the implantation, the major axis (a) and the minor axis (b) of the tumor were measured to calculate a value of "a×b^2 /2" which corresponds to the volume of the tumor. The anti-tumor activity was expressed by the ratio of the volume of the tumors (T) of the group of animals administered with the test compound to the corresponding volume of tumors (C) of the untreated animals.
(2) Determination of ED50 :
On graph paper, T/C (the ratio of the volume of tumors of treated animals to that of control animals) was indicated by an arithmetic scale on the longitudinal axis and the administered amount of the test compound was indicated by a logarithmic scale on the lateral axis. The relationship between the dose and T/C was shown by a straight line determined by the method of least squares, from which a dose corresponding to T/C of 0.5 was obtained.

[11] = test system: peripheral leucocytes; experiment: Effect on the peripheral leucocytes number in tumor-carrying mice; format: in vivo, mouse (ddY strain); conditions: dose which reduces peripheral leucocytes number to 4000/mm^3; intraperitoneal, blood 4 days later
From the text: as §3
WBC4000 indicates the dose of a substance which reduces the peripheral leucocytes number to 4000/mm^3.
(4) Effect on the peripheral leucocytes number:
Sarcoma 180 solid tumor cells (5×10^6) were subcutaneously implanted into the right axilla of each mouse (body weight 20±2 g) of a group consisting of 5 male mice (ddY strain). 24 hours after implantation,a test compound was intraperitoneally administered to each animal. 4 days later, blood (each 0.02 ml) was collected from the suborbital plexus vein of each tumor-carrying animal. The collected sample of blood was dispersed in 9.98 ml of Cell-Kit Seven solution. One drop of saponin solution was added to the sample to dissolve erythrocytes and then a microcell counter was used to count the number of leucocytes. On graph paper, the number of leucocytes was indicated on the y-axis by an arithmetic scale and the dose of the test compound was indicated on the x-axis by a logarithmic scale. The relationship between the number of peripheral leucocytes and the dosage of the test compound was plotted and the dosage corresponding to 4000 peripheral leucocytes/mm^3 (about half the number of leucocytes of normal mice) was obtained. This value is denoted in Table 2 by WBC4000.

| Compound | MIC [1] | MIC [2] | MIC [3] | MIC [4] | MIC [5] | MIC [7] | LD50 at 336 h [9] | ED50 [10] | WEC4000 [11] | other results |
| --- | --- | --- | --- | --- | --- | --- | --- | --- | --- | --- |
| C=C1C2=C(C(=O)C(C)=C(N=CN(C)C)C2=O)N2C[C@H]3[C@H](N3C)[C@]12O (stereo partly shown) [Compound 1, 9a-O-Demethyl-7-N-dimethylaminomethylenemitomycin G] | 10 µg/mL (≈ 30.5 µM) | 10 µg/mL (≈ 30.5 µM) | 0.078 µg/mL (≈ 0.238 µM) | 10 µg/mL (≈ 30.5 µM) | 0.078 µg/mL (≈ 0.238 µM) | 0.078 µg/mL (≈ 0.238 µM) |  |  |  | ILS ([6]; dose 10 mg/kg, similar experiment): 83% |
| C=C1C2=C(C(=O)C(C)=C(N=CN(C)C)C2=O)N2C[C@@H]3N[C@@H]3[C@]12OC [Compound 2, 1a-Demethyl-7-N-dimethylaminoethylenemitomycin G] | 20 µg/mL (≈ 60.9 µM) | 10 µg/mL (≈ 30.5 µM) | 1.3 µg/mL (≈ 3.96 µM) | 10 µg/mL (≈ 30.5 µM) | 0.31 µg/mL (≈ 0.944 µM) | 0.078 µg/mL (≈ 0.238 µM) |  |  |  |  |
| CC1=C(N=CN(C)C)C(=O)C2=C(C1=O)N1C[C@H]3[C@H](N3C)[C@]1(O)[C@H]2COC(N)=O (stereo partly shown) [Compound 3a, 7-N-Dimethylaminomethylenemitomycin D] | > 20 µg/mL | 20 µg/mL (≈ 51.4 µM) | 5 µg/mL (≈ 12.8 µM) | 2.5 µg/mL (≈ 6.42 µM) | 10 µg/mL (≈ 25.7 µM) | 2.5 µg/mL (≈ 6.42 µM) | 8.3 mg/kg | 3.9 mg/kg | 4.3 mg/kg | maximum increased life span ([8]; P-388 resistant to mitomycin C, Table 4, maximum over doses): 143%; ILS % ([8]; dose 1.0 mg/kg): 28%; ILS % ([8]; dose 2.0 mg/kg): 103%; ILS % ([8]; dose 4.0 mg/kg): 143%; ILS % ([8]; dose 6.0 mg/kg): 58%; ILS % ([8]; dose 8.0 mg/kg): 51%; maximum increased life span ([6]; P-388, Table 3, maximum over doses): 213%; ILS % ([6]; dose 0.25 mg/kg): 28%; ILS % ([6]; dose 0.5 mg/kg): 53%; ILS % ([6]; dose 1.0 mg/kg): 58%; ILS % ([6]; dose 2.0 mg/kg): 58%; ILS % ([6]; dose 4.0 mg/kg): 145%; ILS % ([6]; dose 6.0 mg/kg): 213%; ILS % ([6]; dose 8.0 mg/kg): 98%; anti-tumor activity against leukemia P-388 compared with Compound A ([6]; in words, versus Compound A): more excellent anti-tumor activity than Compound A |
| CC1=C(N=CN(C)C)C(=O)C2=C(C1=O)N1C[C@H]3[C@H](N3C)[C@]1(O)[C@H]2COC(=O)N=CN(C)C (stereo partly shown) [Compound 3b, 7-N,N^10-bis(dimethylaminomethylene)mitomycin D] |  |  |  |  |  |  | 26.3 mg/kg | 20.9 mg/kg | 18.7 mg/kg |  |
